# Reference: PubChem BioAssay (NCI)
#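 1) Cells in 96-well plates. 2) Compound, 48 h, 5 concentrations. 3) Linear interpolation between surrounding doses. 4) Unreached endpoint = highest concentration. TGI: total growth inhibition.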
# What was measured:
# Test in all cases: NCI-60 cell line screen, 48 h
# U251 CNS = tested on: U251 CNS
# PC-3 prostate = tested on: PC-3 prostate
# RPMI-8226 leukemia = tested on: RPMI-8226 leukemia
# 786-0 renal = tested on: 786-0 renal
# SW-620 colon = tested on: SW-620 colon
# NCI-H460 lung = tested on: NCI-H460 lung
# HS 578T breast = tested on: HS 578T breast
# A498 renal = tested on: A498 renal
# K-562 leukemia = tested on: K-562 leukemia
# OVCAR-8 ovarian = tested on: OVCAR-8 ovarian
# T-47D breast = tested on: T-47D breast
# SF-268 CNS = tested on: SF-268 CNS
# SNB-19 CNS = tested on: SNB-19 CNS
# ACHN renal = tested on: ACHN renal
# TK-10 renal = tested on: TK-10 renal
# DU-145 prostate = tested on: DU-145 prostate
# OVCAR-4 ovarian = tested on: OVCAR-4 ovarian
# M14 melanoma = tested on: M14 melanoma
# SF-295 CNS = tested on: SF-295 CNS
Structure (SMILES),TGI (U251 CNS),TGI (PC-3 prostate),TGI (RPMI-8226 leukemia),TGI (786-0 renal),TGI (SW-620 colon),TGI (NCI-H460 lung),TGI (HS 578T breast),TGI (A498 renal),TGI (K-562 leukemia),TGI (OVCAR-8 ovarian),TGI (T-47D breast),TGI (SF-268 CNS),TGI (SNB-19 CNS),TGI (ACHN renal),TGI (TK-10 renal),TGI (DU-145 prostate),TGI (OVCAR-4 ovarian),TGI (M14 melanoma),TGI (SF-295 CNS)
Cc1cc(C2(c3cc(C)c(O)c(C(=O)O)c3)OS(=O)(=O)c3ccccc32)cc(C(=O)O)c1O,> 100 µM,> 100 µM,> 100 µM,> 100 µM,> 100 µM,> 100 µM,> 100 µM,> 100 µM,> 100 µM,> 100 µM,> 100 µM,> 100 µM,> 100 µM,> 100 µM,> 100 µM,> 100 µM,> 100 µM,> 100 µM,> 100 µM
O=C1CCC[C@H]2O[C@@H](COCc3ccccc3)C[C@@H]12,> 100 µM,> 100 µM,> 100 µM,> 100 µM,> 100 µM,> 100 µM,> 100 µM,> 100 µM,> 100 µM,> 100 µM,> 100 µM,> 100 µM,> 100 µM,> 100 µM,> 100 µM,> 100 µM,> 100 µM,> 100 µM,> 100 µM
NC(N)=NC(N)=Nc1c(F)c(F)c(F)c(F)c1F,> 100 µM,> 100 µM,> 100 µM,> 100 µM,> 100 µM,> 100 µM,> 100 µM,> 100 µM,> 100 µM,> 100 µM,> 100 µM,> 100 µM,> 100 µM,> 100 µM,> 100 µM,> 100 µM,> 100 µM,48.4 µM,> 100 µM
O=C1CCc2cc3c(cc21)CC1(Cc2ccccc2C1)C3,> 100 µM,> 93.6 µM,25.8 µM,> 100 µM,> 100 µM,> 100 µM,> 100 µM,66.6 µM,5.38 µM,> 100 µM,> 100 µM,> 100 µM,> 100 µM,> 91.7 µM,> 100 µM,> 100 µM,> 100 µM,> 100 µM,> 87.1 µM
CCc1cc2c(cc1CCCC(=O)O)CC1(Cc3ccc(C(=O)O)cc3C1)C2 (stereo not drawn),> 100 µM,> 100 µM,> 100 µM,> 100 µM,> 100 µM,> 100 µM,> 100 µM,> 100 µM,> 100 µM,> 100 µM,> 100 µM,> 100 µM,> 100 µM,> 100 µM,> 100 µM,> 100 µM,> 100 µM,> 100 µM,> 100 µM
O=[N+]([O-])c1ccc(N=NN2CCCC2)cc1,> 100 µM,> 100 µM,> 100 µM,> 100 µM,> 100 µM,> 100 µM,> 100 µM,> 100 µM,> 100 µM,> 100 µM,> 100 µM,> 100 µM,> 100 µM,> 100 µM,> 100 µM,> 100 µM,> 100 µM,> 100 µM,> 100 µM
CN(C)c1ccc(/C=C/c2cc[n+](C)c3ccccc23)cc1,15.9 µM,8.72 µM,21.5 µM,17 µM,12.9 µM,14.3 µM,14 µM,> 58.8 µM,> 45.1 µM,10.1 µM,16.6 µM,21.5 µM,16.5 µM,36.5 µM,25.1 µM,52.2 µM,21.4 µM,15.8 µM,> 43.2 µM
CSc1c(C(=O)Nc2ccc(Cl)cc2)c(N)[nH]c(=O)c1C#N,> 71.4 µM,47.7 µM,> 100 µM,77.9 µM,> 100 µM,> 100 µM,> 100 µM,62.1 µM,> 100 µM,> 88.7 µM,> 83.3 µM,> 100 µM,> 100 µM,> 100 µM,> 100 µM,> 100 µM,> 100 µM,> 100 µM,83.6 µM
Cc1ccc(-c2n[nH]c(=O)[nH]2)cc1,> 100 µM,> 100 µM,> 100 µM,> 100 µM,> 100 µM,> 100 µM,> 100 µM,> 100 µM,> 100 µM,> 100 µM,> 46.4 µM,> 100 µM,> 100 µM,> 100 µM,> 100 µM,> 100 µM,> 100 µM,> 100 µM,> 100 µM
CCOC(=O)C1(Cc2c[nH]c3ccccc23)C(O)CCCN1C(C)=O (stereo not drawn),> 100 µM,> 100 µM,> 100 µM,> 100 µM,> 100 µM,> 100 µM,> 100 µM,> 100 µM,> 100 µM,> 100 µM,> 100 µM,> 100 µM,> 100 µM,> 100 µM,> 100 µM,> 100 µM,> 100 µM,> 100 µM,> 100 µM
Nc1ccc(S(=O)(=O)c2ccc(NC(=O)c3cccnc3)cc2)cc1,> 100 µM,> 100 µM,> 100 µM,> 100 µM,> 100 µM,> 100 µM,> 100 µM,> 100 µM,> 100 µM,> 100 µM,> 100 µM,> 100 µM,> 100 µM,> 100 µM,> 100 µM,> 100 µM,> 100 µM,> 100 µM,> 100 µM
CCCCCCCC(=O)N/N=C/c1ccc(Sc2nccn2C)c([N+](=O)[O-])c1,32.2 µM,33.2 µM,46.7 µM,32.4 µM,32.8 µM,30.5 µM,39.3 µM,32 µM,82.6 µM,37.4 µM,37 µM,32 µM,87 µM,75.2 µM,83.2 µM,46.7 µM,58.3 µM,27.7 µM,33.9 µM
NCCCc1ccc2oc3ccccc3c2c1,33.4 µM,33.1 µM,70.7 µM,28.3 µM,50.3 µM,34.1 µM,47.7 µM,30.2 µM,69.4 µM,57 µM,33.7 µM,39.1 µM,31 µM,32.1 µM,30.4 µM,30.6 µM,38.3 µM,30.1 µM,33.2 µM
COc1ccc(/C=C(\NC(=O)c2ccccc2)C(=O)NN(C)c2ccnc3cc(Cl)ccc23)cc1OC,35.4 µM,70.2 µM,45.3 µM,79.2 µM,51.3 µM,39.3 µM,> 100 µM,> 100 µM,51.2 µM,46.8 µM,> 100 µM,35.4 µM,> 100 µM,79 µM,> 100 µM,66.3 µM,90.5 µM,47.9 µM,97.1 µM
Cc1nnc2sc(-c3ccc(-c4ccccc4Cl)o3)nn12,> 100 µM,> 100 µM,60 µM,80.1 µM,> 100 µM,> 100 µM,> 100 µM,> 100 µM,56.8 µM,53.1 µM,91.6 µM,> 100 µM,> 100 µM,> 100 µM,> 100 µM,> 100 µM,> 100 µM,> 100 µM,> 100 µM
O=C(O)C/C(=C\c1ccccc1)C(=O)O,> 100 µM,> 100 µM,> 100 µM,> 100 µM,> 100 µM,> 100 µM,> 100 µM,> 100 µM,93.5 µM,> 100 µM,> 100 µM,> 100 µM,> 100 µM,> 100 µM,> 100 µM,> 100 µM,> 100 µM,> 100 µM,> 100 µM
CN(C)Cc1cc(N=Nc2ccccc2Cl)cc(CN(C)C)c1O,> 100 µM,> 100 µM,> 100 µM,> 100 µM,> 100 µM,> 100 µM,> 100 µM,> 100 µM,> 100 µM,> 100 µM,> 100 µM,> 100 µM,> 100 µM,> 100 µM,> 100 µM,> 100 µM,> 100 µM,49.1 µM,> 100 µM
